PubChem BioAssay AID1918932 (Molecular Pharmacology Branch, DTP, NCI, 2023)

Test system: 171881-019-R-J1-PDC complex spheroid viability
Assay: Anticancer human tumor 171881-019-R-J1-PDC patient-derived invasive breast carcinoma cell line growth inhibition
Conditions: for IC50: curve of first compound; for viability, T/C: stronger effect = lower value
Source text: Multicellular complex tumor spheroid response to LSD1 Inhibitor Iadademstat in combination with a variety of drugs and investigational agents in selected tumor cell lines
The current study was undertaken to assess response to LSD1 inhibitors in combination with standard-of-care drugs and investigational agents in solid tumor complex spheroid models as well as in the K-562 leukemia. Complex spheroids include a stromal component modeled by human endothelial cells (HUVEC) and fibroblasts modeled by human mesenchymal stem cells (MSCs). The concentration ranges selected for each drug and investigational agent were based upon clinically achievable concentrations if the clinical Cmax of the agent was known.
Compounds. The drugs and investigational agents used in this study are listed on Table 1. All of the agents used, including staurosporine (NSC755774) and gemcitabine (NSC613327), were obtained from the Developmental Therapeutics Program, NCI. FDA-approved anticancer drugs are available from the NCI at http://dtp.nci.nih.gov/branches/dscb/oncology_drugset_explanation.html. Drugs and investigational agents were >95% pure by proton nuclear magnetic resonance (NMR) and liquid chromatography/mass spectrometry (LC/MS). Stock solutions were prepared at 400x in DMSO, stored at -70 degrees C, and diluted in fresh medium prior to their use. The final concentration of DMSO in cell culture wells never exceeded 0.25% (v/v). The FDA-approved anticancer drug set is available from the Developmental Therapeutics Program at https://dtp.cancer.gov/organization/dscb/obtaining/available_plates.htm. All drugs and investigational agents were tested over a range starting from a high concentration at or near the clinical Cmax and decreasing in half-log increments. If the clinical Cmax for an agent had not been determined, the highest concentration tested was 10 microM.
Cell Lines. The patient-derived cancer cell (PDC) lines: 292921-168-R-J2-PDC, K24384-001-R-PDC, and 521955-158-R2-J5-PDC pancreatic carcinomas, 556581-035-R-J1 ovarian carcinoma, 324938-238-R-J1-PDC, 855422-203-R-J1-PDC and 883617-216-R-J1-PDC urothelial bladder carcinomas, 743489-274-T-PDC renal cell carcinoma, 138582-R-J1 Merkel cell tumor, K60290-347-R-J1 and K57222-313-R-J1-PDC glioblastomas, 653999-131-R-J2-PDC, LG0703-F948-PDC, and 349418-098-R-PDC non-small cell lung carcinomas, 885512-296-R-J2-PDC, 171881-019-R-J1-PDC breast carcinomas and 186277-243-T-J2-PDC and 233499-124-R-J2-PDC colon carcinomas were obtained from the NCI Patient-Derived Models Repository (PDMR, https://pdmr.cancer.gov). The established cell lines NCI/ADR-RES (RRID:CVCL_14520 and OVCAR-5 (RRID:CVCL_1628) ovarian carcinomas, 786-O (RRID:CVCL_1051) and A498 (RRID:CVCL_A498) renal cell carcinoma, NCI-H211 (ATCC, cat. CRL-5824; RRID:CVCL_1529), NCI-H196 (ATCC, cat. CRL-5823, RRID:CVCL_1509), SW 1271 (ATCC, cat. CRL-2177, RRID:CVCL_1716) and NCI-H1876 (ATCC, cat. CRL-5902, RRID:CVCL_1503) small cell lung carcinomas, MDA-MB-231 (RRID:CVCL_0062) and MDA-MB-468 (RRID:CVCL_0419)breast carcinomas (10-12). Pooled donor human umbilical vein endothelial cells (HUVEC, Lonza, cat. CC-2519) and human mesenchymal stem cells (hMSC, Lonza, cat. PT-2501) were purchased from Lonza (Walkersville, MD).
Cell Culture. All cells were maintained in an incubator at 37 degrees C and 5% CO2 with 95% humidity. The PDC lines were cultured according to standard operating procedures established by the NCI PDMR (https://pdmr.cancer.gov). Briefly all PDCs were thawed and cultured in Matrigel-coated flasks prepared with a working solution of 1X Ham's F-12 nutrient mix, without supplementation (Invitrogen, Waltham, MA, cat. 11765054), 100 U/mL penicillin-streptomycin (Invitrogen, cat. 15140122), and 2.5% Matrigel (Corning Inc., Corning, NY, cat. 354248) for the first three passages. […]

[1] = second compound 0.1 µM, first compound 0.00316 µM
[2] = second compound 0.1 µM, first compound 0.01 µM
[3] = second compound 0.1 µM, first compound 0.0316 µM
[4] = second compound 0.1 µM, first compound 0.1 µM
[5] = second compound 0.316 µM, first compound 0.00316 µM
[6] = second compound 0.316 µM, first compound 0.01 µM
[7] = second compound 0.316 µM, first compound 0.0316 µM
[8] = second compound 0.316 µM, first compound 0.1 µM
[9] = second compound 1 µM, first compound 0.00316 µM
[10] = second compound 1 µM, first compound 0.01 µM
[11] = second compound 1 µM, first compound 0.0316 µM
[12] = second compound 1 µM, first compound 0.1 µM
[13] = second compound 3.16 µM, first compound 0.00316 µM
[14] = second compound 3.16 µM, first compound 0.01 µM
[15] = second compound 3.16 µM, first compound 0.0316 µM
[16] = second compound 3.16 µM, first compound 0.1 µM
[17] = second compound 10 µM, first compound 0.00316 µM
[18] = second compound 10 µM, first compound 0.01 µM
[19] = second compound 10 µM, first compound 0.0316 µM
[20] = second compound 10 µM, first compound 0.1 µM
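Also: spheroids exposed to agents for 7 days after 3 days growth.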

SMILES: CC[C@@]1(O)C(=O)OCc2c1cc1n(c2=O)Cc2cc3c(CN(C)C)c(O)ccc3nc2-1 + NC1CC1c1ccc(-c2cccc(O)c2)cc1
- IC50 (second compound 0.1 µM): 71.1 nM
- IC50 (second compound 0.316 µM): 80.4 nM
- IC50 (second compound 1 µM): 36.6 nM
- IC50 (second compound 3.16 µM): 37.4 nM
- IC50 (second compound 10 µM): 21 nM
- viability, T/C (second compound 0.1 µM, first compound 0.000316 µM): 103%
- viability, T/C (second compound 0.1 µM, first compound 0.001 µM): 104%
- viability, T/C [1]: 84.4%
- viability, T/C [2]: 68.9%
- viability, T/C [3]: 64.3%
- viability, T/C [4]: 44.2%
- viability, T/C (second compound 0.316 µM, first compound 0.000316 µM): 108%
- viability, T/C (second compound 0.316 µM, first compound 0.001 µM): 107%
- viability, T/C [5]: 87.8%
- viability, T/C [6]: 70.5%
- viability, T/C [7]: 61.9%
- viability, T/C [8]: 46.4%
- viability, T/C (second compound 1 µM, first compound 0.000316 µM): 103%
- viability, T/C (second compound 1 µM, first compound 0.001 µM): 105%
- viability, T/C [9]: 90.7%
- viability, T/C [10]: 70.3%
- viability, T/C [11]: 53.2%
- viability, T/C [12]: 39.6%
- viability, T/C (second compound 3.16 µM, first compound 0.000316 µM): 101%
- viability, T/C (second compound 3.16 µM, first compound 0.001 µM): 96.7%
- viability, T/C [13]: 90.5%
- viability, T/C [14]: 66.8%
- viability, T/C [15]: 55.9%
- viability, T/C [16]: 33.6%
- viability, T/C (second compound 10 µM, first compound 0.000316 µM): 90.1%
- viability, T/C (second compound 10 µM, first compound 0.001 µM): 85.3%
- viability, T/C [17]: 78.9%
- viability, T/C [18]: 57.3%
- viability, T/C [19]: 47%
- viability, T/C [20]: 37.4%

SMILES: COc1cc(C2c3cc4c(cc3C(OC3OC5COC(C)OC5C(O)C3O)C3COC(=O)C23)OCO4)cc(OC)c1O (stereo not given) + NC1CC1c1ccc(-c2cccc(O)c2)cc1
- IC50 (second compound 0.1 µM): 753 nM
- IC50 (second compound 0.316 µM): 1010 nM
- IC50 (second compound 1 µM): 793 nM
- IC50 (second compound 3.16 µM): 554 nM
- IC50 (second compound 10 µM): 406 nM
- viability, T/C (second compound 0.1 µM, first compound 0.00949 µM): 102%
- viability, T/C (second compound 0.1 µM, first compound 0.03 µM): 97%
- viability, T/C (second compound 0.1 µM, first compound 0.0949 µM): 74%
- viability, T/C (second compound 0.1 µM, first compound 0.3 µM): 64%
- viability, T/C (second compound 0.1 µM, first compound 0.949 µM): 48.3%
- viability, T/C (second compound 0.1 µM, first compound 3 µM): 29.2%
- viability, T/C (second compound 0.316 µM, first compound 0.00949 µM): 105%
- viability, T/C (second compound 0.316 µM, first compound 0.03 µM): 101%
- viability, T/C (second compound 0.316 µM, first compound 0.0949 µM): 80.8%
- viability, T/C (second compound 0.316 µM, first compound 0.3 µM): 69.6%
- viability, T/C (second compound 0.316 µM, first compound 0.949 µM): 51.4%
- viability, T/C (second compound 0.316 µM, first compound 3 µM): 33.3%
- viability, T/C (second compound 1 µM, first compound 0.00949 µM): 105%
- viability, T/C (second compound 1 µM, first compound 0.03 µM): 95.3%
- viability, T/C (second compound 1 µM, first compound 0.0949 µM): 84.9%
- viability, T/C (second compound 1 µM, first compound 0.3 µM): 66.4%
- viability, T/C (second compound 1 µM, first compound 0.949 µM): 46.9%
- viability, T/C (second compound 1 µM, first compound 3 µM): 28.1%
- viability, T/C (second compound 3.16 µM, first compound 0.00949 µM): 103%
- viability, T/C (second compound 3.16 µM, first compound 0.03 µM): 99.9%
- viability, T/C (second compound 3.16 µM, first compound 0.0949 µM): 78.7%
- viability, T/C (second compound 3.16 µM, first compound 0.3 µM): 59%
- viability, T/C (second compound 3.16 µM, first compound 0.949 µM): 43.6%
- viability, T/C (second compound 3.16 µM, first compound 3 µM): 27.9%
- viability, T/C (second compound 10 µM, first compound 0.00949 µM): 84.3%
- viability, T/C (second compound 10 µM, first compound 0.03 µM): 78.2%
- viability, T/C (second compound 10 µM, first compound 0.0949 µM): 69.1%
- viability, T/C (second compound 10 µM, first compound 0.3 µM): 51.3%
- viability, T/C (second compound 10 µM, first compound 0.949 µM): 41.4%
- viability, T/C (second compound 10 µM, first compound 3 µM): 27.4%

SMILES: Nc1ncn(C2CC(O)C(CO)O2)c(=O)n1 (stereo not given) + NC1CC1c1ccc(-c2cccc(O)c2)cc1
- IC50 (second compound 0.1 µM): > 1000 nM
- IC50 (second compound 0.316 µM): > 1000 nM
- IC50 (second compound 1 µM): > 1000 nM
- IC50 (second compound 3.16 µM): > 1000 nM
- IC50 (second compound 10 µM): > 1000 nM
- viability, T/C [1]: 102%
- viability, T/C [2]: 98.4%
- viability, T/C [3]: 97.7%
- viability, T/C [4]: 88.4%
- viability, T/C (second compound 0.1 µM, first compound 0.316 µM): 93.8%
- viability, T/C (second compound 0.1 µM, first compound 1 µM): 85.1%
- viability, T/C [5]: 102%
- viability, T/C [6]: 98.6%
- viability, T/C [7]: 95.1%
- viability, T/C [8]: 96.2%
- viability, T/C (second compound 0.316 µM, first compound 0.316 µM): 90.8%
- viability, T/C (second compound 0.316 µM, first compound 1 µM): 90.4%
- viability, T/C [9]: 106%
- viability, T/C [10]: 102%
- viability, T/C [11]: 95%
- viability, T/C [12]: 96.3%
- viability, T/C (second compound 1 µM, first compound 0.316 µM): 92.6%
- viability, T/C (second compound 1 µM, first compound 1 µM): 85.1%
- viability, T/C [13]: 102%
- viability, T/C [14]: 96%
- viability, T/C [15]: 95.8%
- viability, T/C [16]: 96%
- viability, T/C (second compound 3.16 µM, first compound 0.316 µM): 87%
- viability, T/C (second compound 3.16 µM, first compound 1 µM): 82.1%
- viability, T/C [17]: 82.4%
- viability, T/C [18]: 80.6%
- viability, T/C [19]: 81.4%
- viability, T/C [20]: 81%
- viability, T/C (second compound 10 µM, first compound 0.316 µM): 80%
- viability, T/C (second compound 10 µM, first compound 1 µM): 74.8%
